{"source": "patent US20090074668A1", "about": "“Vldlr-/- mouse models and related methods” (priority 2007, published 2009)", "origin": "cited, not measured here", "test_system": "VEGF", "details": "intraocular administration; in vitro and in vivo", "data": [{"molecule": "CC1(C)O[C@@H]2C[C@H]3[C@@H]4CCC5=CC(=O)C=C[C@]5(C)[C@@]4(F)[C@@H](O)C[C@]3(C)[C@]2(C(=O)CO)O1", "note": "[Kenalog]", "values": [{"measurement": "effect on VEGF levels", "value": "reduce VEGF levels"}]}]}
